{"source": "patent US20140113958A1", "about": "“HCV Combination Therapy” (priority 2011, published 2014)", "type_in_all_cases": "cell-based", "key": {"[1]": {"tested_on": "HCV genotype Ib replicon (I389luc-ubi-neo/NS3-3′/ET) in Huh-luc/neo-ET cells", "conditions": "for Efficacy, Antagonism vol / Interaction: second drug in combination with miravirsen (SPC3649); for Efficacy, Antagonism vol: 95% confidence interval, median (≧3 experiments) or individual values; for Interaction: overall", "protocol": "The anti-viral efficacy and cellular toxicity of non-transfected antimiR oligonucleotide in combination with approved and experimental anti-HCV therapeutics (e.g. NM283, 2′-C-methylcytidine, and/or VX-222) (or other NS5B polymerase inhibitors) was determined in the reporter cell line Huh-luc/neo-ET. This cell line harbors the persistently replicating I389luc-ubi-neo/NS3-3′/ET replicon containing the firefly luciferase gene-ubiquitin-neomycin phosphotransferase fusion protein and EMCV IRES driven NS3-5B HCV coding sequences containing the ET tissue culture adaptive mutations (E1202G, T1208I, and K1846T). Eight dilutions of non-transfected antimiR oligonucleotide (bracketing the calculated EC50) were evaluated in triplicate on duplicate sets of three plates with five dilutions of each of the control compounds (bracketing the calculated EC50). One set of plates was used for the determination of cellular toxicity and the other set of plates was used for the determination of anti-viral efficacy. The efficacy and toxicity results was quantified with firefly luciferase activity and XTT dye reduction, respectively, and the results of the assay is imported into the Prichard and Shipman MacSynergy II software program. The MacSynery II analysis includes calculation of the dose response of the two (or more) compounds when used alone followed by calculation of the expected additive level of antiviral inhibition or toxicity when the compounds are used together based on the individual dose response curves. The expected level of activity at each of the concentration data points was compared to the experimentally determined antiviral activity in the assay. The expected activity was subtracted from the realized activity, yielding a negative, zero or positive value. These values are plotted as a three dimensional representation of the data and the result is reported as a two-factor value, expressing the combined average above the expected level of activity (synergy volume) and the combined average below the expected level of activity (antagonism volume). Combination analysis was performed two or more times for each pair of test compound and control substance.\nThe reporter cell line Huh-luc/neo-ET was obtained from Dr. Ralf Bartenschlager (Department of Molecular Virology, Hygiene Institute, University of Heidelberg, Germany) by ImQuest BioSciences. This cell line harbors the persistently replicating 1389luc-ubi-neo/NS3-3′IET replicon containing the firefly luciferase gene-ubiquitinneomycin phosphotransferase fusion protein and EMCV IRES driven NS3-5B HCV coding sequences containing the ET tissue culture adaptive mutations (E 1202G, T12081, and KI846T). A stock culture of the Huh-luc/neo-ET was expanded by culture in DMEM supplemented with 10% FBS, 2 mM glutamine, penicillin (100 IU/mL)/streptomycin (100 f·Ig/mL) and IX nonessential amino acids plus I mg/ml G418. Prior to plating, the cells were split 1:4 and cultured for two passages in the same medium plus 250 f·Ig/mL G418. The cells were treated with trypsin and enumerated by staining with trypan blue and seeded into 96-well tissue culture plates at a cell culture density 5.0×10^3 cells per well in a volume of 85 f·IL per well and incubated at […] in an environment of 5% CO2 for 24 hours. Six plates were established for the determination of combination efficacy (EC50) and cytotoxicity (TC50) for each of the compound combinations (three plates each for efficacy and toxicity). Following the 24 hour incubation, eight 2-fold serial dilutions of SPC3649 in cell culture medium without G418 were prepared (final in well high test concentration of 1.20 μM to 2.40 μM) and added to the cells and five 2-fold or 5-fold serial dilutions of control compounds in cell culture medium without G418 were prepared and added to the cells."}, "[2]": {"tested_on": "HCV genotype 1b replicon NS5B S282T", "conditions": "EC50 mutant / EC50 wild-type; mean of two experiments (individual values)", "protocol": "(§1) The in vitro antiviral of miravirsen was evaluated against wild-type HCV genotype 1b replicon and HCV genotype 1b replicons constructed to contain key amino acid substitutions in NS3 protease (A156T, R155K), NS5B polymerase (S282T, M423I) and NS5A protein (Y93H) in transient transfection assays utilizing Huh 7 cells. […] Huh 7 cells were transfected with either the wild-type or the mutant RNA constructs by electroporation. Luciferase activity was measured 72 hours after compound treatment and EC50 values determined from dose-response curves. Fold resistance was expressed as the ratio of the EC50 for mutant HCV replicon to the EC50 for wild-type HCV replicon.\n(§2) The in vitro antiviral of miravirsen was evaluated against wild-type HCV genotype 1b replicon and HCV replicons constructed to contain key amino acid substitutions in NS3 protease (A156T, R155K), NS5B polymerase (S282T, M423I) and NS5A protein (Y93H) in transient transfection assays. […] Huh 7 cells were transfected with either the wild type or the mutant RNA constructs by electroporation. Luciferase activity was measured 72 hours after compound treatment and EC50 values determined from dose-response curves. Fold resistance was expressed as the ratio of the EC50 for mutant HCV replicon to the EC50 for wild-type HCV replicon. Results are expressed as the mean of two individual experiments. In an initial set of experiments, the standard protocol was modified by adding compounds 24 hours after electroporation. […] In a third experiment cells were pretreated with miravirsen for 24 hours before electroporation with wild-type RNA constructs to determine if preincubation could result in increased miravirsen antiviral activity."}, "[3]": {"tested_on": "HCV genotype 1b replicon NS3 R155K", "conditions": "EC50 mutant / EC50 wild-type, mean of two experiments (individual values)", "protocol": "as §1, §2"}, "[4]": {"tested_on": "HCV genotype 1b replicon NS3 A156T", "conditions": "EC50 mutant / EC50 wild-type, mean of two experiments (individual values)", "protocol": "as §1, §2"}}, "note": "Several values for one entry are separate records, joined by “and”; a condition that tells them apart may be missing. Equal values may be shown once. Read-outs that look alike come from different tables or passages of the source."}
{"compound": "5′-^mCs^ocsAs^otstsGs^oTs^ocsas^mCs^oas^mCs^ots^mCs^omC^o-3′ (CCATTGTCACACTCC; all phosphorothioate, sugars by position and methylation of C not given here; further chemistry not fully specified) [miravirsen]", "values": [{"measurement": "overall antiviral interaction", "setting": "[1]; in combination with ribavirin", "result": "apparent synergy"}, {"measurement": "EC50", "setting": "[1]; previously reported against stable HCV cell lines, read-out: average EC50", "result": 671, "unit": "nM"}, {"measurement": "EC50", "setting": "[1]; read-out: EC50 (+/− SD)", "result": 670, "unit": "nM"}, {"measurement": "fold change in susceptibility, NS5B S282T", "setting": "[2]", "result": "1.9 (2.6, 1.1) fold"}, {"measurement": "fold change in susceptibility, NS3 R155K", "setting": "[3]", "result": "1.2 (1.9, 0.4) fold"}, {"measurement": "fold change in susceptibility, NS3 A156T", "setting": "[4]", "result": "1.0 (1.4, 0.5) fold"}]}
{"compound": "CCC[C@H](NC(=O)[C@@H]1[C@H]2CCC[C@H]2CN1C(=O)[C@@H](NC(=O)[C@@H](NC(=O)c1cnccn1)C1CCCCC1)C(C)(C)C)C(=O)C(=O)NC1CC1", "note": "[Telaprevir, (1S,3aR,6aS)-2-[(2S)-2-[[(2S)-2-Cyclohexyl-2-(pyrazine-2-carbonylamino)acetyl]amino]-3,3-dimethylbutanoyl]-N-[(3S)-1-(cyclopropylamino)-1,2-dioxohexan-3-yl]-3,3a,4,5,6,6a-hexahydro-1H-cyclopenta[c]pyrrole-1-carboxamide]", "values": [{"measurement": "overall antiviral interaction", "setting": "[1]; in combination with ribavirin", "result": "inconclusive"}, {"measurement": "Efficacy, Antag Vol", "setting": "[1]; in combination with ribavirin, 95% confidence level, individual values", "result": "0.00/−200.2 μM^2% and 37.5/−22.6; μM^2%"}, {"measurement": "Efficacy, Antagonism vol", "setting": "[1]", "result": "0/−3.2 μM^2%"}, {"measurement": "Efficacy, Antagonism vol", "setting": "[1]; listed as telaprevir", "result": "−3.22", "unit": "μM^2%"}, {"measurement": "Interaction", "setting": "[1]", "result": "Positive"}, {"measurement": "Interaction", "setting": "[1]; listed as telaprevir", "result": "positive interaction"}, {"measurement": "fold change in susceptibility, NS5B S282T", "setting": "[2]", "result": "1.0 (1.0, 1.0) fold"}, {"measurement": "fold change in susceptibility, NS3 R155K", "setting": "[3]", "result": "4.6 (5.0, 4.2) fold"}, {"measurement": "fold change in susceptibility, NS3 R155K", "setting": "[3]; listed as telaprevir", "result": 4.6, "unit": "fold"}, {"measurement": "fold change in susceptibility, NS3 A156T", "setting": "[4]", "result": "36.1 (46.9, 25.2) fold"}, {"measurement": "fold change in susceptibility, NS3 A156T", "setting": "[4]; listed as telaprevir", "result": 36.1, "unit": "fold"}]}
